Data: patent US20230151100A1, “Method of Selecting Patients for Treatment with a Combination of an AXL Inhibitor and an Immune Checkpoint Modulator” (BERGENBIO ASA, priority 2020, published 2023)

Legend:
[1] = system: Kras^G12D, p53^−/− STK11^−/− mutant (KPL9-3) mouse lung cancer-derived cells; assay: Subcutaneous KPL9-3 tumors in immune-competent mice, tumor volume; format: in vivo, mouse (C57Bl/6); settings: anti-PD1 10 mg/kg i.p. twice a week for two weeks, BGB324 50 mg/kg oral gavage twice daily, or both
Method: Kras^G12D, p53^−/− mutant (KP9-1) or Kras^G12D, p53^−/− STK11^−/− mutant (KPL9-3) mouse lung cancer-derived cell lines were prepared using standard techniques known in the art. KP9-1 or KPL9-3 cells were propagated at sub-confluence and split on a regular basis.
Each animal was weighed before cell implantation. Injection of cells was performed after anesthetizing of the mice. The cell lines discussed above were injected subcutaneously into immune-competent mice (C57Bl/6 strain).
Mice were treated with either placebo or anti-PD1 therapeutic (200 μg/mouse, intraperitoneal, twice a week for two weeks).Tumor volume was assessed using hand held callipers and mouse weight were followed.
The Kras^G12D, p53^−/− STK11^−/− mutant (KPL9-3) mouse lung cancer-derived cells described above were implanted subcutaneously in immune-competent mice (C57Bl/6 strain) using the same protocol as described above.
Mice were treated with either placebo, anti-PD1 therapeutic (10 mg/kg, intraperitoneal, twice a week for two weeks), BGB324 (50 mg/kg, oral gavage, twice daily) or a combination of both drugs. Tumor volumes were measured.

[2] = system: Kras^G12D, p53 WT STK11^−/− mutant human A549 lung cancer cells; assay: A549 xenografts in humanized mice, tumor volume; format: in vivo; settings: anti-PD1 10 mg/kg i.p. 3 dosages, BGB324 50 mg/kg oral gavage twice daily for 3 weeks, or both
Method: Human non-small cell lung cancer (NSCLC) cells Kras^G12D, p53 WT STK11^−/− mutant human A549 lung cancer cells were cultured using standard protocols.
Each animal was weighed before cell implantation. Injection of the cells was performed after anesthetizing of the mice. Kras^G12D, p53 WT STK11^−/− mutant human A549 lung cancer cells were implanted subcutaneously in humanized immune-deficient mice.
Mice were treated with either placebo, anti-PD1 therapy (10 mg/kg, intraperitoneal, 3 dosages), BGB324 (50 mg/kg, oral gavage, twice daily for 3 weeks) or a combination of both drugs.

KPL9-3-1 tumor cells = assay: KPL9-3-1 subcutaneous allograft tumor growth; format: in vivo, mouse (C57BL/6J); settings: KPL9-3-1 tumors; BGB324 50 mg/kg oral gavage twice daily, anti-PD-1 10 mg/kg i.p., alone or in combination; 3 weeks
Method: (§1) Control group were treated with control IgG (10 mg/kg) and vehicle (50 mg/kg). Tumor growth was measured every 3 days. […] The ratio of observed cell numbers to random expectation estimated by Roie index through chi-square test. +++ (Roien, P<0.05) represents highly enriched, ++ (1.2≤Ro/e<3, P<0.05) represents enriched, + (0.8≤Ro/e<1.2, P<0.05) represents weakly enriched, − (0<Ro/e<0.8, P<0.05) represents not significant or reduced.
For subcutaneous allografts, 1×10^6 cells in 100 ul phosphate buffered saline (PBS) were injected into the right dorsal flanks of 6-8 wks old mice. For xenografts growing on humanized mice, 1.5×10^6 cells in 100 ul phosphate buffered saline (PBS) were injected into the right dorsal flanks of reconstituted humanized mice.
Tumor bearing mice were randomly assigned into treatment groups when the tumor grew to around 100-150 mm^3. For each treatment group, 5 mice were assigned. 10 mg/kg anti-PD-1 (BioXCell, Cat #BE0146) treatment was given intraperitoneally on day 0, day 4 and day 7 after innoculation. The control group was treated with 10 mg/kg rat IgG2a isotype control (BioX Cell, Cat #BE0089) at the same day of PD-1 treatment, intraperitoneally. For the tumor growth measurement experiment, mice were treated for 3 weeks. […] Tumor volumes were measured by length (a), width (b) and height (h) in every 3 days and calculated as tumor volume=abh. […]

[3] = system: TCF1^+PD-1^+ CD8^+ T cells in KPL9-3-1 tumors; assay: Tumor microenvironment analysis of KPL9-3-1 tumors (flow cytometry, IHC); format: in vivo, mouse (C57BL/6J)
Method: as §1
KPL9-3-1 allograft were implanted into mice as described above. 5 mice were assigned into each treatment group. 10 mg/kg anti-PD-1 (BioXCell, Cat #BE0146) treatment was given intraperitoneally on day 0, day 4 and day 7 after treatment. Control group of PD-1 treatment was treated with 10 mg/kg rat IgG2a isotype control (BioX Cell, Cat #BE0089) at the same day of PD-1 treatment, intraperitoneally. BGB324 were given through oral gavage twice daily, with a dose of 50 mg/kg.
For tumor growth measurement experiment, mice were treated for 3 weeks. For tumor microenvironment analysis, mice were treated for 7 days, when the tumor sizes in each treatment group are within 2-fold differences.Seven days after tumor inoculation, mice were treated with either BGB324 or anti-PD-1 alone, or in combination.

[4] = system: CD8^+ T cell clusters in KPL9-3-1 TME; assay: scRNAseq with paired TCR sequencing of CD8^+ T cell clusters in KPL9-3-1 tumors; format: in vivo, mouse; settings: observed versus expected cell number per cluster
Method: The immune landscape of the tumors from each treatment group was assessed using scRNAseq of immune cells. Sequenced scRNA-seq samples were processed through Cellranger pipelines (v3.1.0). Cellranger count was used to align reads to mouse reference genome (mm10, 2020-A, from 10× Genomics) and generate single cell feature counts for single library.
For scTCR-seq data, TCR reads were aligned to reference genome and TCR annotation was performed using the 10×cellranger vdj pipeline with provided reference (cellranger-vdj-GRCm38-alts-ensemb1-4.0.0). Overall, 94% of T cells in scRNA-seq data were assigned a TCR and more than 70% had at least one full-length productive CDR3 for both TRA and TRB. The clonotype of each T cell was represented by the beta CDR3 sequences, and clone sizes ranged from 1 cell to 580 cells. Cellranger aggr were applied next to aggregate each sample library for grouped analysis with same effective sequencing depth. Seurat (3.2.1) package was used for downstream analysis.
To determine the potential lineage differentiation between those T cell populations with high TCR sharing. Monocle (version 2.0) (PMID: 24658644) was used to investigate transcriptional and developmental trajectories concerning different CD8+ or CD4+ T cell clusters. The data of raw counts together with cluster annotations were taken as input to monocle, and the default parameters were set to run data normalization and dimension reduction. Next, Monocle leaned the kinetics of gene expression by using the reversed graph embedding approach and places each cell along an inferred pseudotime trajectory. According to the assumption that the trajectory has a tree structure, functional “State” is identified based on the segment of the tree-like structure. […]
Treatment enriched cells in each cluster were calculated and compared based on the number of cells observed divided by expected number of cells in each cluster (FIG. 8D).

[5] = system: Bone marrow derived BMDCs; assay: BMDC co-culture with irradiated KPL9-3-1 tumor cells, IFN beta ELISA; format: cell-based, mouse; settings: BGB324 40 nM, 24 h; supernatant ELISA; versus DMSO
Method: Bone marrow derived BMDCs (2×10^5) were co-cultured with […] irradiated KPL9-3-1 tumor cells (2×10^6), with or without BGB324 treatment (40 nM). After 24 h, the cell supernatant was collected for analysis. The concentration of […] was measured by VeriKine-HS Mouse IFN Beta Serum ELISA kit (PBL Assay Science, Cat #42410), or VerKine Human IFN Beta ELISA kit (PBL Assay Science, Cat #414101) in accordance with the manufacturer's instructions. The plates were visualized by adding 100 μL of TMB solution and read at 450 nm using the SPECTROstarNano (BMG LABTECH).
The cells were treated with BGB324 or DMSO.

OT-1 CD8^+ T cells = assay: BMDC co-culture with OT-1 CD8^+ T cells stimulated with ovalbumin, TCF1 expression by flow cytometry; format: cell-based, mouse; settings: co-cultures of BMDC with OT-1 CD8^+ T cells stimulated by ovalbumin
[6] = system: TCF1^+PD-1^+ cells among CD8^+ TILs; assay: Intratumoral injection of IFNα, TCF1^+PD-1^+ CD8^+ TILs; format: in vivo, mouse; settings: IFNα 200 ng intratumoral, 48 h
Method: Tumor tissues were excised and digested with 2 mg/mL Collagenase A (Sigma, Cat #SCR136) and 1 mg/ml DNase I (Roche, Cat #11284932001) under 37° C., 150 rpm shaking speed for 45 min. Digested materials then were transferred to a 70 μm cell strainer to remove clumped cells. Digested cells were washed twice with FACs buffer and ready for flow cytometry analysis.

[7] = system: non-small cell lung cancer; assay: Earlier lines of therapy of trial patients 234008 and 211105 (case history); format: in vivo, human

`Nc1nc(Nc2ccc3c(c2)CC[C@@H](N2CCCC2)CC3)nn1-c1cc2c(nn1)-c1ccccc1CCC2` [BGB324, 1-(6,7-dihydro-5H-benzo[6,7]cyclohepta[1,2-c]pyridazin-3-yl)-N^3-((7-(S)-pyrrolidin-1-yl)-6,7,8,9-tetrahydro-5H-benzo[7]annulene-2-yl)-1H-1,2,4-triazole-3,5-diamine] was tested, and the “tumor sensitivity to therapy (tumor volume)” value [1] was “resistant”, the “tumor sensitivity to therapy (tumor volume)” value [2] was “resistant” and the tumor growth control (KPL9-3-1 tumor cells) was “Neither single treatment resulted in tumor growth control”. The “infiltration of TCF1+PD-1^+ CD8^+ T cells” value ([3]; flow cytometry, day 7 after treatment started) was “increased”, the “TCF1^+PD-1^+ CD8^+ T cell presence in the tumor” value ([3]; immunohistochemistry) was “enhanced” and the “distribution of CD8+ cells relative to tumor islands” value ([3]; immunohistochemistry) was “large population of CD8+ cells, but these are grouped together, excluded from the tumor islands”. For the same compound, the “enrichment of clonal expanded CD8^+ T cells (unique TCRs)” value [4] was “enriched CD8^+ T cells expressing unique TCRs (clonal expanded) significantly”, the “enrichment of exhaustive effector CD8^+ T cells” value [4] was “also enriched” and the “enrichment of stem like T cells” value [4] was “also enriched”. For the same compound, the “secretion of Interferon type 1β (IFNβ)” value [5] was “increased” and the “TCF1^+ expression on CD8^+ T cells” value (OT-1 CD8^+ T cells) was “increased”.
IFNα [reference compound] was tested, and the “TCF1^+ expression on CD8^+ T cells” value (OT-1 CD8^+ T cells) was “increased” and the “TCF1^+PD-1^+ cells among CD8^+ TILs after intratumoral injection” value [6] was “phenocopied”.
In the case of carboplatin and paclitaxel, the “duration of response to first-line therapy before progression” value ([7]; patient 234008) was 22 months and the “response to first-line therapy” value ([7]; patient 234008, before enrolling in the study) was “partial response”.
With “pembrolizumab: anti-PD-1 antibody, immune checkpoint inhibitor” the “duration of clinical benefit before progression” value ([7]; patient 211105, monotherapy after first-line progression) was 18 months.
